Measurements: US11021413B2, “Benzylpropargylether as nitrification inhibitors” (BASF SE, priority 2014, dated 2021)

System: nitrification
Assay: Inhibition of nitrification in soil (48 well plate, ammonium sulfate, colour reaction read at 540 nm)
Details: for IN (best inhibition value obtained for a compound): field soil, up to 72 hrs at room temperature, compared to control (DMSO only)
Method: The compounds of the invention have been tested as follows in terms of the inhibition of nitrification:
Soil was sampled fresh from a field (e.g. Limburgerhof), dried and sieved through a 500 μm sieve. Approximately 200 mg of soil were placed into each well of a 48 well plate. […] 6 μmol ammonium sulfate was added per well as well as 4.8 mg NaClO3.
Subsequently, the samples were incubated at room temperature for up to 72 hrs. After the incubation period 64 mg KCl were added and mixed. 25 μl of the supernatant were placed into a fresh plate and 260 μl of a color reaction solution (from Merck Nr 1.11799.0100) were added. Measurements were taken with a Tecan plate Reader at 540 nm wavelength.
Inhibition is calculated as x=% activity compared to control, and converted to 100-x to give the value of inhibition, rather than activity.

## C#CCOCc1ccc(OC)c(OC)c1 [Compound 1-1]
Dose of 10 ppm
  IN (best inhibition value obtained for a compound): 15%

## C#CCOCc1ccc(Br)cc1 [Compound 1-2]
Dose of 10 ppm
  IN (best inhibition value obtained for a compound): 48%

## C#CCOCc1ccc(Oc2ccccc2)cc1 [Compound 1-3]
Dose of 10 ppm
  IN (best inhibition value obtained for a compound): 11%

## C#CCOCc1ccc(Oc2ccc(F)cc2)cc1 [Compound 1-4]
Dose of 10 ppm
  IN (best inhibition value obtained for a compound): 15%

## C#CCOCc1ccccc1F [Compound 1-5]
Dose of 10 ppm
  IN (best inhibition value obtained for a compound): 27%

## C#CCOC(Cn1cncn1)c1ccc(Oc2ccc(Cl)cc2)cc1Cl (stereo not shown) [Compound 1-6]
Dose of 10 ppm
  IN (best inhibition value obtained for a compound): 10%

## C#CCOC(Cn1cncn1)c1ccc(Oc2ccc(Cl)cc2)cc1C(F)(F)F (stereo not shown) [Compound 1-7]
Dose of 10 ppm
  IN (best inhibition value obtained for a compound): 11%

## C#CCOCc1ccc(OC)cc1 [Compound 1-8]
Dose of 10 ppm
  IN (best inhibition value obtained for a compound): 57%

## C#CCOCc1cccc(OC)c1 [Compound 1-9]
Dose of 10 ppm
  IN (best inhibition value obtained for a compound): 20%

## C#CCOCc1ccc(Cl)cc1Cl [Compound 1-10]
Dose of 10 ppm
  IN (best inhibition value obtained for a compound): 14%

## C#CCOC(Cn1cncn1)c1ccc(Br)cc1 (stereo not shown) [Compound 1-12]
Dose of 10 ppm
  IN (best inhibition value obtained for a compound): 15%

## C#CCOC(Cn1cncn1)c1ccc(F)cc1 (stereo not shown) [Compound 1-13]
Dose of 10 ppm
  IN (best inhibition value obtained for a compound): 10%

## C#CCOCc1ccc(Cl)cc1C [Compound 1-14]
Dose of 10 ppm
  IN (best inhibition value obtained for a compound): 56%

## C#CCOCc1ccc(Cl)cc1 [Compound 1-15]
Dose of 10 ppm
  IN (best inhibition value obtained for a compound): 58%

## C#CCOCc1ccc(Oc2ccc(Cl)cc2)cc1 [Compound 1-16]
Dose of 10 ppm
  IN (best inhibition value obtained for a compound): 11%

## C#CCOC(Cn1cncn1)c1ccc(Oc2ccc(Cl)cc2)cc1 (stereo not shown) [Compound 1-18]
Dose of 10 ppm
  IN (best inhibition value obtained for a compound): 10%

## C#CCOC(Cn1cncn1)c1cc(OC)c(OC)c(OC)c1 (stereo not shown) [Compound 1-20]
Dose of 10 ppm
  IN (best inhibition value obtained for a compound): 10%

## C#CCOC(c1ccccc1)C(CCCC)n1cncn1 (stereo not shown) [Compound 1-21]
Dose of 10 ppm
  IN (best inhibition value obtained for a compound): 20%

## C#CCOC(CC(n1cncn1)C(C)(C)C)c1ccc(Cl)cc1Cl (stereo not shown) [Compound 1-22]
Dose of 10 ppm
  IN (best inhibition value obtained for a compound): 11%

## C#CCOCc1ccc(COCC#C)cc1 [Compound 1-23]
Dose of 5±1 ppm
  IN (best inhibition value obtained for a compound): 18%

## C#CCOCc1ccc(OC(C)C)cc1 [Compound 1-24]
Dose of 5±1 ppm
  IN (best inhibition value obtained for a compound): 18%

## C#CCOCc1ccc(F)cc1 [Compound 1-25]
Dose of 5±1 ppm
  IN (best inhibition value obtained for a compound): 87%

## C#CCOCc1ccc(OCC)cc1 [Compound 1-26]
Dose of 5±1 ppm
  IN (best inhibition value obtained for a compound): 69%

## C#CCOCc1ccc(OCCC)cc1 [Compound 1-27]
Dose of 5±1 ppm
  IN (best inhibition value obtained for a compound): 59%

## C#CCOCc1ccccc1 [Compound 1-28]
Dose of 5±1 ppm
  IN (best inhibition value obtained for a compound): 88%

## C#CCOCc1ccc(C)cc1 [Compound 1-29]
Dose of 5±1 ppm
  IN (best inhibition value obtained for a compound): 37%

## C#CCOCc1ccc(C#N)cc1 [Compound 1-30]
Dose of 5±1 ppm
  IN (best inhibition value obtained for a compound): 25%

## C#CCOCc1ccc(C(=O)O)cc1 [Compound 1-31]
Dose of 5±1 ppm
  IN (best inhibition value obtained for a compound): 18%

## C#CCOCc1ccc(I)cc1 [Compound 1-32]
Dose of 5±1 ppm
  IN (best inhibition value obtained for a compound): 53%

## C#CCOCc1ccc(C(=O)N(C)C)cc1 [Compound 1-33]
Dose of 5±1 ppm
  IN (best inhibition value obtained for a compound): 24%

## C#Cc1ccccc1 [Phenylacetylene, phenylacetylene, reference compound]
Dose of 10 ppm, same conditions as Example 1.1
  IN (inhibition value), comparative example: 7%
